Laboratory results: ChEMBL document CHEMBL4229383, “Antiproliferative efficacy of curcumin mimics through microtubule destabilization” (Eur J Med Chem, 2018)
The source made the active and inactive calls. The calls are words filed in the database; no cut-off is given here.

Tests used:
A549 = assay: Cytotoxicity against human A549 cells preincubated for 4 hrs followed by incubation in compound free media for 24 hrs by MTT assay; assay type: functional, cell-based
A-431 = assay: Cytotoxicity against human A431 cells preincubated for 4 hrs followed by incubation in compound free media for 24 hrs by MTT assay; assay type: functional, cell-based
WRL68 = assay: Cytotoxicity against human WRL68 cells preincubated for 4 hrs followed by incubation in compound free media for 24 hrs by MTT assay; assay type: functional, cell-based
MCF7 = assay: Cytotoxicity against human MCF7 cells preincubated for 4 hrs followed by incubation in compound free media for 24 hrs by MTT assay; assay type: functional, cell-based
DLD-1 = assay: Cytotoxicity against human DLD1 cells preincubated for 4 hrs followed by incubation in compound free media for 24 hrs by MTT assay; assay type: functional, cell-based
[1] = Inhibition of porcine brain tubulin polymerization measured every min for 1 hr; parameters: species or system Sus scrofa
Sus scrofa = species on record: Sus scrofa; assay: Inhibition of porcine brain tubulin polymerization at 20 uM measured every min for 1 hr
Mus musculus [2] = assay: Toxicity in Swiss mouse implanted with mouse EAC cells assessed as body weight at 20 mg/kg, ip measured on day 1 post dose (reference value: 22g); assay type: organism-based; settings: in vivo
Mus musculus [3] = assay: Toxicity in Swiss mouse implanted with mouse EAC cells assessed as body weight at 20 mg/kg, ip measured on day 5 post dose (reference value: 23.7g); assay type: organism-based; settings: in vivo
Mus musculus [4] = assay: Toxicity in Swiss mouse implanted with mouse EAC cells assessed as body weight at 20 mg/kg, ip measured on day 9 post dose (reference value: 28.66g); assay type: organism-based; settings: in vivo
Mus musculus [5] = assay: Toxicity in Swiss mouse implanted with mouse EAC cells assessed as body weight at 20 mg/kg, ip measured on day 12 post dose (reference value: 32.5g); assay type: organism-based; settings: in vivo
Mus musculus [6] = assay: Toxicity in Swiss mouse implanted with mouse EAC cells assessed as body weight at 20 mg/kg, ip measured on day 1 post dose (reference value: 24.77g); assay type: organism-based; settings: in vivo
Mus musculus [7] = assay: Toxicity in Swiss mouse implanted with mouse EAC cells assessed as body weight at 20 mg/kg, ip measured on day 5 post dose (reference value: 26.33g); assay type: organism-based; settings: in vivo
Mus musculus [8] = assay: Toxicity in Swiss mouse implanted with mouse EAC cells assessed as body weight at 20 mg/kg, ip measured on day 9 post dose (reference value: 30.55g); assay type: organism-based; settings: in vivo
Mus musculus [9] = assay: Toxicity in Swiss mouse implanted with mouse EAC cells assessed as body weight at 20 mg/kg, ip measured on day 12 post dose (reference value: 35.5g); assay type: organism-based; settings: in vivo
Ehrlich [10] = assay: Antitumor activity against mouse EAC cells implanted in Swiss mouse assessed as tumor growth inhibition at 20 mg/kg, ip from day 1 to 9 and measured on day 12 post dose relative to control; assay type: functional; settings: read-out: TGI
Mus musculus [11] = assay: Toxicity in Swiss mouse implanted with mouse EAC cells assessed as mortality at 20 mg/kg, ip from day 1 to 9 and measured on day 12 post dose; assay type: organism-based; settings: in vivo
Ehrlich [12] = assay: Antitumor activity against mouse EAC cells implanted in Swiss mouse assessed as solid tumor growth inhibition at 22 mg/kg, ip from day 1 to 9 and measured on day 13 post dose relative to control; assay type: functional; settings: read-out: TGI
Mus musculus [13] = assay: Toxicity in Swiss mouse implanted with mouse EAC solid tumor cells assessed as body weight at 22 mg/kg, ip from day 1 to 9 and measured on day 13 post dose (reference value: 26.9g); assay type: organism-based; settings: in vivo
Mus musculus [14] = assay: Toxicity in Swiss mouse implanted with mouse EAC solid tumor cells assessed as body weight at 22 mg/kg, ip measured on day 1 post dose (reference value: 25 g); assay type: organism-based; settings: in vivo
Mus musculus [15] = assay: Toxicity in Swiss mouse implanted with mouse EAC solid tumor cells assessed as body weight at 22 mg/kg, ip measured on day 5 post dose (reference value: 26.7 g); assay type: organism-based; settings: in vivo
Mus musculus [16] = assay: Toxicity in Swiss mouse implanted with mouse EAC solid tumor cells assessed as body weight at 22 mg/kg, ip measured on day 9 post dose (reference value: 26.7 g); assay type: organism-based; settings: in vivo

## COc1cc(/C=C/C(=O)CC(=O)/C=C/c2ccc(O)c(OC)c2)ccc1O [CURCUMIN]
A549
  IC50: 43.9 µM
A-431
  IC50: > 100 µM
WRL68
  IC50: 27.8 µM
MCF7
  IC50: 22.1 µM
DLD-1
  IC50: > 40 µM
[1]
  IC50: 5120 nM
Sus scrofa
  inhibition: Active

## COc1cc([C@@H]2c3cc4c(cc3[C@H](O)[C@H]3COC(=O)[C@H]23)OCO4)cc(OC)c1OC [PODOFILOX]
A549
  IC50: 5.61 µM
A-431
  IC50: > 100 µM
WRL68
  IC50: 3.02 µM
MCF7
  IC50: 4.16 µM
DLD-1
  IC50: 0.11 µM
[1]
  IC50: 780 nM

## COc1cc(/C=C/C(=O)CC(=O)/C=C/c2ccc(O)cc2)ccc1O
A549
  IC50: 28.2 µM
A-431
  IC50: > 100 µM
WRL68
  IC50: 26.3 µM
MCF7
  IC50: 92.1 µM
DLD-1
  IC50: > 40 µM

## O=C(/C=C/c1ccc(O)cc1)CC(=O)/C=C/c1ccc(O)cc1 [BISDEMETHOXYCURCUMIN]
A-431
  IC50: > 100 µM
WRL68
  IC50: 45.4 µM
MCF7
  IC50: 48.9 µM
DLD-1
  IC50: > 40 µM

## CC/C(=C(\c1ccccc1)c1ccc(OCCN(C)C)cc1)c1ccccc1 [TAMOXIFEN]
A-431
  IC50: > 100 µM
MCF7
  IC50: 8.61 µM
DLD-1
  IC50: 16.3 µM

## O=C(/C=C/c1ccc(/C=C/C(=O)c2ccc3c(c2)OCO3)cc1)c1ccc2c(c1)OCO2
A549
  IC50: > 100 µM
A-431
  IC50: > 100 µM
WRL68
  IC50: 80.1 µM
MCF7
  IC50: 30.6 µM
DLD-1
  IC50: > 40 µM

## O=C(/C=C/c1ccc2c(c1)OCO2)c1cccc(C(=O)/C=C/c2ccc3c(c2)OCO3)c1
A549
  IC50: 18.7 µM
A-431
  IC50: 10 µM
WRL68
  IC50: > 100 µM
MCF7
  IC50: > 100 µM
DLD-1
  IC50: 16.5 µM

## O=c1[nH]cc(F)c(=O)[nH]1 [FLUOROURACIL]
Mus musculus [2]
  Activity: 22.85 g
Mus musculus [3]
  Activity: 22.57 g
Mus musculus [4]
  Activity: 21.71 g
Mus musculus [5]
  Activity: 21.42 g
Mus musculus [6]
  Activity: 25.85 g
Mus musculus [7]
  Activity: 25.85 g
Mus musculus [8]
  Activity: 24.57 g
Mus musculus [9]
  Activity: 24.14 g
Ehrlich [10]
  inhibition in vivo at 20 mg/kg: 96.4 to 96.8%
Mus musculus [11]
  Activity: Non-Toxic
Ehrlich [12]
  inhibition in vivo at 22 mg/kg: 51%
Mus musculus [13]
  Activity: 24.85 g
Mus musculus [14]
  Activity: 26.42 g
Mus musculus [15]
  Activity: 25.14 g
Mus musculus [16]
  Activity: 24.71 g
